# Assays:
# [1] = test system: antibodies in sera from SARS patients (sera 1a, 1b, 2, 6, 37, 62, London, SARS-yellow, SARS-green); type: binding, human; set-up: Binding of serum 6 to linear peptides of protein X1 of SARS-CoV Urbani / Binding of serum 37 to linear peptides of protein X1 of SARS-CoV Urbani / Binding of serum 6 to looped/cyclic peptide (PEPSCAN-ELISA) / Binding of serum 37 to looped/cyclic peptide (PEPSCAN-ELISA) / Binding of serum 37 to looped/cyclic peptides of protein X1 of SARS-CoV Urbani / Binding of serum 6 to linear peptides of protein X2 / Binding of serum 37 to linear peptides of protein X2 / Binding of serum 37 to looped/cyclic peptides of protein X2 of SARS-CoV Urbani / Binding of serum 6 to linear peptides of protein M of SARS-CoV Urbani / Binding of serum 37 to linear peptides of protein M of SARS-CoV Urbani / Binding of serum 6 to looped/cyclic peptides of protein M of SARS-CoV Urbani / Binding of serum 37 to looped/cyclic peptides of protein M of SARS-CoV Urbani / Binding of serum 6 to linear peptides of protein X3 of SARS-CoV Urbani / Binding of serum 37 to linear peptides of protein X3 of SARS-CoV Urbani / Binding of serum 37 to looped/cyclic peptides of protein X3 of SARS-CoV Urbani / Binding of serum 6 to linear peptides of protein X4 of SARS-CoV Urbani / Binding of serum 37 to linear peptides of protein X4 of SARS-CoV Urbani / Binding of serum 37 to looped/cyclic peptides of protein X4 of SARS-CoV Urbani / Binding of serum 6 to linear peptides of protein X5 of SARS-CoV Urbani / Binding of serum 37 to linear peptides of protein X5 of SARS-CoV Urbani / Binding of serum 37 to looped/cyclic peptides of protein X5 of SARS-CoV Urbani / Binding of serum 6 to linear peptides of protein N of SARS-CoV Urbani / Binding of serum 37 to linear peptides of protein N of SARS-CoV Urbani / Binding of serum 6 to linear peptide (PEPSCAN-ELISA) / Binding of serum 1a to looped/cyclic peptides of protein N of SARS-CoV Urbani / Binding of serum 1b to looped/cyclic peptides of protein N of SARS-CoV Urbani / Binding of serum 2 to looped/cyclic peptides of protein N of SARS-CoV Urbani / Binding of serum 6 to looped/cyclic peptides of protein N of SARS-CoV Urbani / Binding of serum 37 to looped/cyclic peptides of protein N of SARS-CoV Urbani / Binding of serum 62 to looped/cyclic peptides of protein N of SARS-CoV Urbani / Binding of serum London to looped/cyclic peptides of protein N of SARS-CoV Urbani / Binding of serum SARS-green to looped/cyclic peptides of protein N of SARS-CoV Urbani: unit not given here
# [2] = test system: recombinant human anti-SARS-CoV antibody 03-018; type: binding; set-up: Binding of antibody 03-018 to linear peptides of the N protein of SARS-CoV Urbani / Binding of antibody 03-018 to looped/cyclic peptides of the N protein of SARS-CoV Urbani: unit not given here
# [3] = test system: rabbit serum obtained by immunizing a rabbit with the SARS-CoV strain Frankfurt 1; type: binding; set-up: Binding of a rabbit serum to linear peptides / Binding of a rabbit serum to looped peptides / Rabbit serum linear peptides / Rabbit serum looped peptides / Binding of a rabbit serum to linear peptides of protein N of SARS-CoV Urbani (Rabbit serum linear peptides) / Binding of a rabbit serum to looped/cyclic peptides of protein N of SARS-CoV Urbani (Rabbit serum looped peptides): unit not given here
# [4] = test system: control sera (pooled serum of ten healthy LUMC hospital workers; commercial negative donor pooled serum from the Dutch bloodbank); type: binding, human; set-up: Binding of Control serum LUMC to linear peptides / Binding of Control serum Blood-bank to linear peptides / Binding of Control serum LUMC to looped peptides / Binding of Control Serum Blood-Bank to Looped peptides / Binding of Control serum LUMC to linear peptides of the protein M of SARS-CoV Urbani / Binding of Control serum Blood-bank to linear peptides of the protein M of SARS-CoV Urbani / Binding of Control serum LUMC to looped peptides of the protein M of SARS-CoV Urbani / Binding of Control Serum Blood-Bank to Looped peptides of the protein M of SARS-CoV Urbani: unit not given here
sequence,measurement,setting,value
DGKMKELSPRWYFYY,Binding of serum 1a to linear peptides of protein N of SARS-CoV Urbani,[1],0.2
same,Binding of serum 1a to looped/cyclic peptides of protein N of SARS-CoV Urbani,[1],0.4
same,Binding of serum 1b to linear peptides of protein N of SARS-CoV Urbani,[1],0.1
same,Binding of serum 1b to looped/cyclic peptides of protein N of SARS-CoV Urbani,[1],0.3
same,Binding of serum 2 to linear peptides of protein N of SARS-CoV Urbani,[1],0.2
same,Binding of serum 2 to looped/cyclic peptides of protein N of SARS-CoV Urbani,[1],0.5
same,Binding of serum 6 to linear peptides of protein N of SARS-CoV Urbani,[1],0.1
same,Binding of serum 6 to looped/cyclic peptides of protein N of SARS-CoV Urbani,[1],0.4
same,Binding of serum 37 to linear peptides of protein N of SARS-CoV Urbani,[1],0.5
same,Binding of serum 37 to looped/cyclic peptides of protein N of SARS-CoV Urbani,[1],0.8
same,Binding of serum 62 to linear peptides of protein N of SARS-CoV Urbani,[1],0.5
same,Binding of serum 62 to looped/cyclic peptides of protein N of SARS-CoV Urbani,[1],0.7
same,Binding of serum London to linear peptides of protein N of SARS-CoV Urbani,[1],0.4
same,Binding of serum London to looped/cyclic peptides of protein N of SARS-CoV Urbani,[1],0.5
same,Binding of serum SARS-green to linear peptides of protein N of SARS-CoV Urbani,[1],0.4
same,Binding of serum SARS-green to looped/cyclic peptides of protein N of SARS-CoV Urbani,[1],0.4
same,Binding of serum SARS-yellow to linear peptides of protein N of SARS-CoV Urbani,[1],0.5
same,Binding of serum SARS-yellow to looped/cyclic peptides of protein N of SARS-CoV Urbani,[1],0.5
same,Binding of antibody 03-018 to linear peptides of the N protein of SARS-CoV Urbani,[2],0.1
same,Binding of antibody 03-018 to looped/cyclic peptides of the N protein of SARS-CoV Urbani,[2],0.2
same,Binding of a rabbit serum to linear peptides of protein N of SARS-CoV Urbani (Rabbit serum linear peptides),[3],0.1
same,Binding of a rabbit serum to looped/cyclic peptides of protein N of SARS-CoV Urbani (Rabbit serum looped peptides),[3],0.6
same,Binding of Control Serum Blood-Bank to Looped peptides,[4],0.8
same,Binding of Control serum Blood-bank to linear peptides,[4],0.8
same,Binding of Control serum LUMC to linear peptides,[4],0.6
same,Binding of Control serum LUMC to looped peptides,[4],0.7
DHIGTRNPNNNAATV,Binding of serum 1a to linear peptides of protein N of SARS-CoV Urbani,[1],0.3
same,Binding of serum 1a to looped/cyclic peptides of protein N of SARS-CoV Urbani,[1],0.5
same,Binding of serum 1b to linear peptides of protein N of SARS-CoV Urbani,[1],0.1
same,Binding of serum 1b to looped/cyclic peptides of protein N of SARS-CoV Urbani,[1],0.4
same,Binding of serum 2 to linear peptides of protein N of SARS-CoV Urbani,[1],0.3
same,Binding of serum 2 to looped/cyclic peptides of protein N of SARS-CoV Urbani,[1],0.8
same,Binding of serum 6 to linear peptides of protein N of SARS-CoV Urbani,[1],0.2
same,Binding of serum 6 to looped/cyclic peptides of protein N of SARS-CoV Urbani,[1],0.5
same,Binding of serum 37 to linear peptides of protein N of SARS-CoV Urbani,[1],0.7
same,Binding of serum 37 to looped/cyclic peptides of protein N of SARS-CoV Urbani,[1],1.1
same,Binding of serum 62 to linear peptides of protein N of SARS-CoV Urbani,[1],0.7
same,Binding of serum 62 to looped/cyclic peptides of protein N of SARS-CoV Urbani,[1],0.8
same,Binding of serum London to linear peptides of protein N of SARS-CoV Urbani,[1],0.5
same,Binding of serum London to looped/cyclic peptides of protein N of SARS-CoV Urbani,[1],0.7
same,Binding of serum SARS-green to linear peptides of protein N of SARS-CoV Urbani,[1],0.5
same,Binding of serum SARS-green to looped/cyclic peptides of protein N of SARS-CoV Urbani,[1],0.5
same,Binding of serum SARS-yellow to linear peptides of protein N of SARS-CoV Urbani,[1],0.7
same,Binding of serum SARS-yellow to looped/cyclic peptides of protein N of SARS-CoV Urbani,[1],0.6
same,Binding of antibody 03-018 to linear peptides of the N protein of SARS-CoV Urbani,[2],0.1
same,Binding of antibody 03-018 to looped/cyclic peptides of the N protein of SARS-CoV Urbani,[2],0.3
same,Binding of a rabbit serum to linear peptides of protein N of SARS-CoV Urbani (Rabbit serum linear peptides),[3],0.1
same,Binding of a rabbit serum to looped/cyclic peptides of protein N of SARS-CoV Urbani (Rabbit serum looped peptides),[3],0.5
same,Binding of Control Serum Blood-Bank to Looped peptides,[4],0.9
same,Binding of Control serum Blood-bank to linear peptides,[4],0.8
same,Binding of Control serum LUMC to linear peptides,[4],0.7
same,Binding of Control serum LUMC to looped peptides,[4],1.0
DKKKKTDEAQPLPQR,Binding of serum 1a to linear peptides of protein N of SARS-CoV Urbani,[1],0.2
same,Binding of serum 1a to looped/cyclic peptides of protein N of SARS-CoV Urbani,[1],0.2
same,Binding of serum 1b to linear peptides of protein N of SARS-CoV Urbani,[1],0.1
same,Binding of serum 1b to looped/cyclic peptides of protein N of SARS-CoV Urbani,[1],0.1
same,Binding of serum 2 to linear peptides of protein N of SARS-CoV Urbani,[1],0.2
same,Binding of serum 2 to looped/cyclic peptides of protein N of SARS-CoV Urbani,[1],0.2
same,Binding of serum 6 to linear peptides of protein N of SARS-CoV Urbani,[1],0.2
same,Binding of serum 6 to looped/cyclic peptides of protein N of SARS-CoV Urbani,[1],0.1
same,Binding of serum 37 to linear peptides of protein N of SARS-CoV Urbani,[1],0.6
same,Binding of serum 37 to looped/cyclic peptides of protein N of SARS-CoV Urbani,[1],0.4
same,Binding of serum 62 to linear peptides of protein N of SARS-CoV Urbani,[1],0.6
same,Binding of serum 62 to looped/cyclic peptides of protein N of SARS-CoV Urbani,[1],0.3
same,Binding of serum London to linear peptides of protein N of SARS-CoV Urbani,[1],0.5
same,Binding of serum London to looped/cyclic peptides of protein N of SARS-CoV Urbani,[1],0.3
same,Binding of serum SARS-green to linear peptides of protein N of SARS-CoV Urbani,[1],0.5
same,Binding of serum SARS-green to looped/cyclic peptides of protein N of SARS-CoV Urbani,[1],0.3
same,Binding of serum SARS-yellow to linear peptides of protein N of SARS-CoV Urbani,[1],0.6
same,Binding of serum SARS-yellow to looped/cyclic peptides of protein N of SARS-CoV Urbani,[1],0.3
same,Binding of antibody 03-018 to linear peptides of the N protein of SARS-CoV Urbani,[2],0.1
same,Binding of antibody 03-018 to looped/cyclic peptides of the N protein of SARS-CoV Urbani,[2],0.2
same,Binding of a rabbit serum to linear peptides of protein N of SARS-CoV Urbani (Rabbit serum linear peptides),[3],0.1
same,Binding of a rabbit serum to looped/cyclic peptides of protein N of SARS-CoV Urbani (Rabbit serum looped peptides),[3],0.3
same,Control Serum Blood-Bank Looped peptides,[4],0.5
same,Control serum Blood-bank linear peptides,[4],0.8
same,Control serum LUMC linear peptides,[4],0.6
same,Control serum LUMC looped peptides,[4],0.4
DMDDFSRQLQNSMSG,Binding of serum 1a to linear peptides of protein N of SARS-CoV Urbani,[1],0.2
same,Binding of serum 1a to looped/cyclic peptides of protein N of SARS-CoV Urbani,[1],0.3
same,Binding of serum 1b to linear peptides of protein N of SARS-CoV Urbani,[1],0.2
same,Binding of serum 1b to looped/cyclic peptides of protein N of SARS-CoV Urbani,[1],0.1
same,Binding of serum 2 to linear peptides of protein N of SARS-CoV Urbani,[1],0.2
same,Binding of serum 2 to looped/cyclic peptides of protein N of SARS-CoV Urbani,[1],0.3
same,Binding of serum 6 to linear peptides of protein N of SARS-CoV Urbani,[1],0.3
same,Binding of serum 6 to looped/cyclic peptides of protein N of SARS-CoV Urbani,[1],0.0
same,Binding of serum 37 to linear peptides of protein N of SARS-CoV Urbani,[1],0.8
same,Binding of serum 37 to looped/cyclic peptides of protein N of SARS-CoV Urbani,[1],0.4
same,Binding of serum 62 to linear peptides of protein N of SARS-CoV Urbani,[1],0.7
same,Binding of serum 62 to looped/cyclic peptides of protein N of SARS-CoV Urbani,[1],0.2
same,Binding of serum London to linear peptides of protein N of SARS-CoV Urbani,[1],0.7
same,Binding of serum London to looped/cyclic peptides of protein N of SARS-CoV Urbani,[1],0.2
same,Binding of serum SARS-green to linear peptides of protein N of SARS-CoV Urbani,[1],0.3
same,Binding of serum SARS-green to looped/cyclic peptides of protein N of SARS-CoV Urbani,[1],0.0
same,Binding of serum SARS-yellow to linear peptides of protein N of SARS-CoV Urbani,[1],0.7
same,Binding of serum SARS-yellow to looped/cyclic peptides of protein N of SARS-CoV Urbani,[1],0.2
same,Binding of antibody 03-018 to linear peptides of the N protein of SARS-CoV Urbani,[2],0.1
same,Binding of antibody 03-018 to looped/cyclic peptides of the N protein of SARS-CoV Urbani,[2],0.2
same,Binding of a rabbit serum to linear peptides of protein N of SARS-CoV Urbani (Rabbit serum linear peptides),[3],0.2
same,Binding of a rabbit serum to looped/cyclic peptides of protein N of SARS-CoV Urbani (Rabbit serum looped peptides),[3],0.4
same,Control Serum Blood-Bank Looped peptides,[4],0.4
same,Control serum Blood-bank linear peptides,[4],0.8
same,Control serum LUMC linear peptides,[4],0.6
same,Control serum LUMC looped peptides,[4],0.3

# Reference: patent publication US20070128217A1 (priority 2003, published 2007)
